Data published in paper PMC4887995, “Small molecule dual-inhibitors of TRPV4 and TRPA1 for attenuation of inflammation and pain” (Scientific Reports, 2016).
Entries after “also recorded” stand apart in the source; their conditions may differ.

Key:
TRPV1 = TRPV1 (Mus musculus, UniProt Q704Y3); experiment: Ca++ imaging in N2a cells over-expressing TRPV1 (capsaicin); conditions: 5 μM
Method: (§1) (A) Specificity vs TRPV1-3. […] Mean±SEM is shown, ≥100 cells per condition. […] Plot generated from averaged peak ∆Ca^++ concentration of ≥75 cells per data-point.
(§2) N2a cells were used for directed expression of TRP ion channels as described previously[13]. […] All other channels were native channels from mouse, eGFP was co-transfected. […] Ca^++ imaging was performed as described previously[13][14][34].

TRPV2 = molecular target: T1, TRPV2 (Mus musculus, UniProt Q9WTR1); experiment: Ca++ imaging in N2a cells over-expressing TRPV2 (hypotonicity); conditions: 5 μM
T1 sequence (Q9WTR1 1-756): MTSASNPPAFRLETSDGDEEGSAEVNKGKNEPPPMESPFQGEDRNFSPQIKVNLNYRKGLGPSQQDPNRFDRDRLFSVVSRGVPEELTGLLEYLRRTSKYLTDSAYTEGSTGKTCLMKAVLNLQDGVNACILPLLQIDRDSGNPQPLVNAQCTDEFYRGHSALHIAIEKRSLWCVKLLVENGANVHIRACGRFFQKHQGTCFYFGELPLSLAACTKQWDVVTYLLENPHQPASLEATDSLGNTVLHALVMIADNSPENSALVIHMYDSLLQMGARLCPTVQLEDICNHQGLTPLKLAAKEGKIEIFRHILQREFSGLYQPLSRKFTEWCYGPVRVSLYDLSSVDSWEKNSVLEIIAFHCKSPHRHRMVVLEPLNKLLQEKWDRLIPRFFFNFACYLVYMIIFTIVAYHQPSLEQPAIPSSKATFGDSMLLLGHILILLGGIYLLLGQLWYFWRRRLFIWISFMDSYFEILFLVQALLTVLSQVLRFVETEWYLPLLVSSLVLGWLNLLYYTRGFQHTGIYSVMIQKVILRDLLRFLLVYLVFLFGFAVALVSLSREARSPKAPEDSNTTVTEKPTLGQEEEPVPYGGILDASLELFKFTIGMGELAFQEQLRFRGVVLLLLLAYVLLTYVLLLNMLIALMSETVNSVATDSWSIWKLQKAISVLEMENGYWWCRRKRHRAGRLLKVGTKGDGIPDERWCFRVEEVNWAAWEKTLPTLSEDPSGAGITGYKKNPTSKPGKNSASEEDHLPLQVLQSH
Method: as §1, §2

[1] = Stability of compound in plasma; type: in vitro ADME; conditions: 4 h incubation in plasma at 37 °C
[2] = Preliminary in-vivo cardiac, renal and hepatic toxicity; parameters: species or system mouse; conditions: 10 mg/kg i.p., vs vehicle; for heart rate (EKG): over 1 h at the 6 h time-point
Method: Mice were treated i.p. with compounds 16-8 and 16-19 (10 mg/kg). Hepatic and renal integrity were analyzed by alanine amino-transferase- and creatinine assays (Sigma), both relying on measurement of absorbance at λ = 570 nm in 96-well micro-titerplates. 8 technical replicates per animal were performed.
For heart rate assessment in mice treated with 16-8 and 16-19, animals were fitted with two electrodes, one to the ear, via clip, one to the rib-cage, using firm adhesive. Heart rate was monitored and analyzed using axoscope and clampfit 9.2 software (Molecular Devices)

N2a cells = experiment: Cell viability (resazurin) in N2a cells; type: cell-based
Method: Figure 6 Cellular toxicity studies of compounds 16-8 and 16-19. N2a cells were subjected to increasing concentrations of compounds 16-8 and 16-19, resulting cell viability was analyzed for the next 48 h. (A) Time course of cell viability in the presence of various concentrations of 16-8. […] Representative result of 2 independent experiments.
N2a cells were cultured in 96 well plates for 24–48 h. Cell viability studies relied on metabolic capability monitored with the indicator dye resazurin. Its reduction to resorufin (indicated by color change dark blue to pink) was monitored over time. Changes in absorbance at λ = 570 nm were recorded using a microplate reader (Molecular Devices). […] Eight replicate cultures per experimental point were studied.

TRPV3 = molecular target: T2, TRPV3 (Mus musculus, UniProt Q8K424); experiment: Ca++ imaging in N2a cells over-expressing TRPV3 (camphor); conditions: 5 μM
T2 sequence (Q8K424 1-791): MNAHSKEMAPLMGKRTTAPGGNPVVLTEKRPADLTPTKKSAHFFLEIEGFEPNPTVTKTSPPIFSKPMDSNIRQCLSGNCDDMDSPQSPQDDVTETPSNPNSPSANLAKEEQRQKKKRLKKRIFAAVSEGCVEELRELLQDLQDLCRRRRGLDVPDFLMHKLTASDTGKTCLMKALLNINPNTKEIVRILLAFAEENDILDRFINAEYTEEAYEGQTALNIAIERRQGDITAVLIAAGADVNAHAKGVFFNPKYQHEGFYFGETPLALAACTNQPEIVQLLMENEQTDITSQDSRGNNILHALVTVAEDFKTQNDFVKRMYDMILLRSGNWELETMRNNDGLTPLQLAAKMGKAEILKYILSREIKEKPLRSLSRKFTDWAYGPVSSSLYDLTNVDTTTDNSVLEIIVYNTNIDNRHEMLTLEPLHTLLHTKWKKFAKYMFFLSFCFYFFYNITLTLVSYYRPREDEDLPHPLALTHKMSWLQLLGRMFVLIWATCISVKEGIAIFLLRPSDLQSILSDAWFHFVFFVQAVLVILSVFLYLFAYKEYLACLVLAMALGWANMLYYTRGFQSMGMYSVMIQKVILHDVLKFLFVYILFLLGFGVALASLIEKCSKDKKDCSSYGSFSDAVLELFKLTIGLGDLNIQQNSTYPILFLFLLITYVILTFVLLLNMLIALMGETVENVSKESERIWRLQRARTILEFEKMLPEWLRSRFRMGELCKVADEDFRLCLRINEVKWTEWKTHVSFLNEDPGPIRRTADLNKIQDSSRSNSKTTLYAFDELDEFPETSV
Method: as §1, §2

TRPV4 = molecular target: T3, TRPV4 (Sus scrofa, UniProt B3VP30); experiment: Ca++ imaging in primary articular chondrocytes, GSK101 stimulation; type: cell-based, pig; conditions: GSK101 5 nM
T3 construct: primary cells, which express functional and biologically-relevant TRPV4 without directed over-expression of the channel; endogenous in cells; host or cells: primary porcine articular chondrocytes (femoral condyles)
Method: Figure 4 Compound 16-8 inhibits TRPV4 in I˚ cells more potently than GSK205. […] Inset: Chondrocytes responding to activation with GSK101, fura-2 Ca^++ imaging; right-hand image taken at 5 sec after GSK101 application. […] (B) I˚ astrocytes (rat); dose-response comparison between 16-8 and GSK205 in response to 5 nM GSK101. Inset: Astrocytes responding to activation with GSK101; right-hand image taken at 5 sec after GSK101 application (mean ± SEM, n = 5 independent expts, n ≥ 200 cells/expt; *p < 0.05, t-test).
Primary porcine chondrocytes derived from femoral condyles of skeletally mature pigs were cultured and subjected to Ca^++ imaging as described previously.

TRPV1, sequence (Q704Y3 whole entry): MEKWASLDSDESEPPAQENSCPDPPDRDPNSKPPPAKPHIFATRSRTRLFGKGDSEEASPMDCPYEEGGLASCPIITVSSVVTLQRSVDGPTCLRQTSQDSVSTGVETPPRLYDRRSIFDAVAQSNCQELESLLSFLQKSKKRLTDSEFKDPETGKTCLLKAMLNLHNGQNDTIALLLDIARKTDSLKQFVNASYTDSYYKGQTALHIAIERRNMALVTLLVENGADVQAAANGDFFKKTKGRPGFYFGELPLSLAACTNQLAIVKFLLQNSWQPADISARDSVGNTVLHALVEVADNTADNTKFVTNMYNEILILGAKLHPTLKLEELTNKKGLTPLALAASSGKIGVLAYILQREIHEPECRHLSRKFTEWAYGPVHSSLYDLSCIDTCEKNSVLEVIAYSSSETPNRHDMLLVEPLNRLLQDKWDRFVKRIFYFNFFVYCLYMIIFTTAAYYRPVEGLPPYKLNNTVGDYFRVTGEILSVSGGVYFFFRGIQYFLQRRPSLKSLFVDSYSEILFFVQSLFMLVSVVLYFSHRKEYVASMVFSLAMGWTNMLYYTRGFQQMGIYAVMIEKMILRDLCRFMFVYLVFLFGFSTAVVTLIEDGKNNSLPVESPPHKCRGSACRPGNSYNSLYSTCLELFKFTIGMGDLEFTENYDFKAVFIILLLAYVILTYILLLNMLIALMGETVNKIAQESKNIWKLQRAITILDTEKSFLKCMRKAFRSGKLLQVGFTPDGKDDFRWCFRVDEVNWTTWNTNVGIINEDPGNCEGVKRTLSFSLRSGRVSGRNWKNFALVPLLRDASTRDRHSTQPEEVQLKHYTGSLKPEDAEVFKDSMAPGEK
T3 sequence (B3VP30 1-871): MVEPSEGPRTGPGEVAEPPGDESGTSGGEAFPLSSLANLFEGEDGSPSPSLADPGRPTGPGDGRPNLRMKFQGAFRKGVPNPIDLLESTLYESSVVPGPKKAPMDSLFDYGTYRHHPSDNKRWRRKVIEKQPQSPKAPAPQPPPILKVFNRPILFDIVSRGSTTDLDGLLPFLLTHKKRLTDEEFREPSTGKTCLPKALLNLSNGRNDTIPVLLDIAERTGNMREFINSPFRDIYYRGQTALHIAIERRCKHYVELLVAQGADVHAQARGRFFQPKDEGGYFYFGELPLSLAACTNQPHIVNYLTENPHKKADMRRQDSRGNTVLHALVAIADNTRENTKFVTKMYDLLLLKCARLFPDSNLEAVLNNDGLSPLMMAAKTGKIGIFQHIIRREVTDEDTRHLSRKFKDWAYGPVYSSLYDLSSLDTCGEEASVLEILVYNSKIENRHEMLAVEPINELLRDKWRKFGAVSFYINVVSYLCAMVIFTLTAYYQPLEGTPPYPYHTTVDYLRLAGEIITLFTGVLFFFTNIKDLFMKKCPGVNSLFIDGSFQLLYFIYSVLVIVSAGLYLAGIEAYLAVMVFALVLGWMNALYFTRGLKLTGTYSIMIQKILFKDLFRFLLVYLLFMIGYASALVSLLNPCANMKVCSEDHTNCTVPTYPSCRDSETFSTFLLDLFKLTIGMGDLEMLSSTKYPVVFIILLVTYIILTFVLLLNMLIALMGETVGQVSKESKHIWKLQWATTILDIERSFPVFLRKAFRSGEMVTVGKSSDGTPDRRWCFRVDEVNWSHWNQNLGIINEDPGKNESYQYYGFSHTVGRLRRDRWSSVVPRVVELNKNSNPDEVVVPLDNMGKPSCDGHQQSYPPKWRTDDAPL

Structure (SMILES)	inhibition of TRPV1 (TRPV1)	inhibition of TRPV2 (TRPV2)	stability in plasma [1]	heart rate (EKG) [2]	serum alanine-amino-transferase (ALT) [2]	serum creatinin [2]	cellular toxicity vs inhibitory potency against TRPV4/TRPA1, factor (N2a cells)	inhibition of TRPV3 (TRPV3)	cell viability (N2a cells; increasing concentrations, followed for 48 h)	potency vs GSK205, dose-response of peak ∆Ca++ (TRPV4)
CCN(CCc1ccc(Nc2nc(-c3ccccc3)cs2)cc1)Cc1ccccc1 [16-19]	did not inhibit	did not inhibit	stable; also recorded: no loss of detectable compound	no and did not detect differences and changes	not significantly elevated	not significantly elevated	50–100	did not inhibit		
CN(CCc1ccc(Nc2nc(-c3ccccc3)cs2)cc1)Cc1ccccc1 [16-8]	did not inhibit	did not inhibit		no and did not detect differences and changes	not significantly elevated	not significantly elevated	50–100	did not inhibit	clear reduction at 40 and 80 μM	significantly more potent than GSK205
